Measured values taken from patent US20120214862A1, “MODULATION OF FACTOR 7 EXPRESSION” (ISIS Pharmaceuticals, Inc., priority 2009, published 2012).
In the oligonucleotide strings, read from the 5' end, every base follows the letter of its sugar. An asterisk marks phosphorothioate; unmarked linkages are phosphodiester. Other units and linkages are bracketed, terminal groups are in braces. A string of capitals states the bases alone. e = 2'-O-(2-methoxyethyl) (MOE); [5mC] = 5-methylcytosine; d = 2'-deoxy (DNA)

Test system: human Factor 7 mRNA
Assay: Inhibition of human Factor 7 mRNA by 2-10-2 MOE shortmers in HepB3 cells, electroporation, 1,000 nM
Format: cell-based
Settings: electroporation, 1,000 nM oligonucleotide, approximately 24 hours, relative to untreated control cells
Outline: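 14-mer 2-10-2 2′-MOE gapmers, full phosphorothioate, 5-methylcytidines, electroporated at 1,000 nM into HepB3 cells (20,000/well). After ~24 h, mRNA quantified by real-time RT-PCR, normalized to RIBOGREEN total RNA; percent inhibition relative to untreated cells.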

Row | Substance | % inhibition of human Factor 7 mRNA [%]
1 | 435789 (antisense e[5mC]*eA*dT*dG*dT*dT*dA*dG*d[5mC]*d[5mC]*dT*dT*eT*eG) [compound 435789] | 3
2 | 435790 (antisense eA*eT*dG*dA*d[5mC]*d[5mC]*dA*dT*d[5mC]*d[5mC]*dT*d[5mC]*eA*eA) [compound 435790] | 1
3 | 435791 (antisense eA*eT*dG*dA*dG*dA*dA*dA*dT*dG*d[5mC]*dT*eT*eT) [compound 435791] | 0
4 | 435792 (antisense eT*eG*d[5mC]*dT*dG*dA*dA*dG*dA*dA*dA*d[5mC]*eT*eG) [compound 435792] | 9
5 | 435793 (antisense eT*eG*d[5mC]*dA*dG*dT*dA*dG*d[5mC]*dA*dG*dA*eT*eG) [compound 435793] | 27
6 | 435794 (antisense eG*eA*dG*dG*dT*dA*d[5mC]*dA*d[5mC]*dA*dG*dG*e[5mC]*eT) [compound 435794] | 26
7 | 435795 (antisense eA*e[5mC]*dA*d[5mC]*d[5mC]*d[5mC]*dG*dA*dG*dG*dT*dT*e[5mC]*eA) [compound 435795] | 66
8 | 435796 (antisense eT*eG*dA*d[5mC]*d[5mC]*dA*d[5mC]*dA*d[5mC]*dA*dT*dT*eT*e[5mC]) [compound 435796] | 30
9 | 435797 (antisense eA*eA*dT*d[5mC]*dT*dT*dG*dG*d[5mC]*d[5mC]*d[5mC]*d[5mC]*eT*e[5mC]) [compound 435797] | 16
10 | 435798 (antisense eA*eG*d[5mC]*d[5mC]*dA*dG*dA*d[5mC]*dT*dT*dT*d[5mC]*e[5mC]*eT) [compound 435798] | 54
11 | 435799 (antisense e[5mC]*eT*dG*dG*dT*d[5mC]*d[5mC]*d[5mC]*d[5mC]*dA*dT*d[5mC]*eT*eG) [compound 435799] | 33
12 | 435800 (antisense eG*eG*dA*d[5mC]*d[5mC]*d[5mC]*dA*dA*dA*dG*dT*dG*eG*eG) [compound 435800] | 0
13 | 435801 (antisense e[5mC]*eG*dG*dT*dT*dG*dG*d[5mC]*d[5mC]*dA*dG*dG*e[5mC]*e[5mC]) [compound 435801] | 38
14 | 435802 (antisense eG*eT*d[5mC]*dA*d[5mC]*d[5mC]*dT*dA*dG*dA*d[5mC]*d[5mC]*eA*eA) [compound 435802] | 61
15 | 435803 (antisense eG*eA*dG*dA*dA*dT*dT*dG*d[5mC]*d[5mC]*d[5mC]*dA*eG*eG) [compound 435803] | 0
16 | 435804 (antisense e[5mC]*eA*dG*dG*dG*dA*d[5mC]*dT*d[5mC]*dT*d[5mC]*dA*eG*e[5mC]) [compound 435804] | 26
17 | 435805 (antisense eT*eG*dA*dA*dT*dT*dA*d[5mC]*dT*dG*dA*dA*e[5mC]*e[5mC]) [compound 435805] | 0
18 | 435806 (antisense eT*eG*dA*d[5mC]*d[5mC]*d[5mC]*d[5mC]*dA*d[5mC]*dA*dG*dG*eG*eA) [compound 435806] | 7
19 | 435807 (antisense e[5mC]*eA*dG*dT*dA*d[5mC]*dT*dT*d[5mC]*d[5mC]*d[5mC]*dA*e[5mC]*eG) [compound 435807] | 35

Row | Substance | % inhibition of human Factor 7 mRNA [%]
20 | 435808 (antisense e[5mC]*eT*d[5mC]*dT*dG*dG*dA*d[5mC]*dA*d[5mC]*d[5mC]*dG*eG*eG) [compound 435808] | 66
21 | 435809 (antisense e[5mC]*eT*dG*dA*d[5mC]*dA*dA*dT*dG*dT*dG*dA*eT*eG) [compound 435809] | 5
22 | 435810 (antisense e[5mC]*eT*dG*dA*dG*dG*dG*dA*dA*dT*dG*dT*eT*eG) [compound 435810] | 1
23 | 435811 (antisense eG*eT*dG*dG*dT*d[5mC]*dA*dA*dG*dG*dA*dT*eG*eA) [compound 435811] | 27
24 | 435812 (antisense eG*e[5mC]*dT*dG*dA*dG*d[5mC]*dA*dG*dA*dG*dA*eT*e[5mC]) [compound 435812] | 35
25 | 435813 (antisense eG*eG*dA*dT*dG*d[5mC]*dA*d[5mC]*dA*d[5mC]*d[5mC]*dA*eG*eG) [compound 435813] | 55
26 | 435814 (antisense eT*eG*dA*d[5mC]*dG*dA*dG*dA*dG*dG*dA*d[5mC]*e[5mC]*eA) [compound 435814] | 31
27 | 435815 (antisense e[5mC]*eT*d[5mC]*dT*dT*d[5mC]*d[5mC]*dG*dA*dG*d[5mC]*dA*eG*e[5mC]) [compound 435815] | 59
28 | 435816 (antisense eT*e[5mC]*d[5mC]*dA*dA*dA*dG*dG*dA*d[5mC]*dA*dA*eG*eG) [compound 435816] | 4
29 | 435817 (antisense e[5mC]*eT*dG*dA*dG*d[5mC]*dT*dT*dG*dG*d[5mC]*dA*e[5mC]*e[5mC]) [compound 435817] | 39
30 | 435818 (antisense eG*eT*d[5mC]*dA*dT*d[5mC]*d[5mC]*dT*dT*dG*dT*d[5mC]*eT*eG) [compound 435818] | 43
31 | 435819 (antisense eT*eT*dT*dG*dT*d[5mC]*d[5mC]*dA*dG*dT*dA*dA*eG*eA) [compound 435819] | 1
32 | 435820 (antisense e[5mC]*eA*dT*d[5mC]*d[5mC]*dT*dA*dG*dT*d[5mC]*dA*d[5mC]*eT*eG) [compound 435820] | 19
33 | 435821 (antisense eA*eG*dT*d[5mC]*dA*dG*dT*dA*d[5mC]*dA*dG*dA*e[5mC]*eA) [compound 435821] | 0
34 | 435822 (antisense e[5mC]*e[5mC]*dA*dG*dG*dA*dG*d[5mC]*d[5mC]*dT*dT*dT*eA*e[5mC]) [compound 435822] | 37
35 | 435823 (antisense eT*eG*dA*dG*dT*d[5mC]*d[5mC]*d[5mC]*dA*dG*dG*d[5mC]*eT*eG) [compound 435823] | 41
36 | 435824 (antisense e[5mC]*e[5mC]*dT*dA*dA*dA*dG*dA*dT*dG*dA*dA*eT*e[5mC]) [compound 435824] | 21
37 | 435825 (antisense e[5mC]*eT*dG*dG*dT*dT*dT*dT*dG*dG*dA*dG*eG*eA) [compound 435825] | 0
38 | 435826 (antisense eA*eA*dG*dT*dG*dG*d[5mC]*dT*dG*dG*d[5mC]*dT*eG*eA) [compound 435826] | 27

Row | Substance | % inhibition of human Factor 7 mRNA [%]
39 | 435827 (antisense eT*e[5mC]*dA*dG*dA*dA*dA*dG*dA*dT*dG*d[5mC]*eA*eG) [compound 435827] | 5
40 | 435828 (antisense eG*eA*d[5mC]*d[5mC]*dT*dG*d[5mC]*d[5mC]*d[5mC]*dA*dT*dT*eT*eT) [compound 435828] | 0
41 | 435829 (antisense eG*eG*dG*dT*dA*dG*dA*d[5mC]*d[5mC]*d[5mC]*dT*d[5mC]*eA*eG) [compound 435829] | 18
42 | 435830 (antisense eT*eG*dA*dT*dT*dT*dT*dG*d[5mC]*dA*dA*dA*eG*eA) [compound 435830] | 0
43 | 435831 (antisense eG*eA*dT*d[5mC]*dT*dT*d[5mC]*dA*d[5mC]*dA*dT*dA*eG*e[5mC]) [compound 435831] | 51
44 | 435832 (antisense eT*eG*d[5mC]*dT*d[5mC]*dA*dG*dA*d[5mC]*d[5mC]*dT*dG*eG*e[5mC]) [compound 435832] | 70
45 | 435833 (antisense eA*eG*dA*d[5mC]*dA*d[5mC]*dT*dT*dG*dA*dG*dA*eG*e[5mC]) [compound 435833] | 24
46 | 435834 (antisense eT*eG*dA*d[5mC]*dA*dG*d[5mC]*dA*d[5mC]*dG*dA*dA*eG*e[5mC]) [compound 435834] | 20
47 | 435835 (antisense eT*eT*dA*dT*dT*dT*dG*dG*dG*d[5mC]*dA*dT*eG*eG) [compound 435835] | 7
48 | 435836 (antisense e[5mC]*eT*dA*dG*dG*dT*d[5mC]*dT*dG*d[5mC]*dA*dG*eG*eG) [compound 435836] | 41
49 | 435837 (antisense e[5mC]*eT*d[5mC]*dG*d[5mC]*d[5mC]*dT*dG*dG*dA*dA*dG*eG*eA) [compound 435837] | 37
50 | 435838 (antisense eT*e[5mC]*d[5mC]*dA*dT*dG*dG*dA*d[5mC]*dA*d[5mC]*dT*eA*eA) [compound 435838] | 29
51 | 435839 (antisense eG*eG*dT*d[5mC]*dA*dG*d[5mC]*dT*dG*dG*dT*d[5mC]*eT*eG) [compound 435839] | 14
52 | 435840 (antisense eG*eG*dG*d[5mC]*d[5mC]*d[5mC]*dG*d[5mC]*d[5mC]*dA*d[5mC]*dT*eG*eG) [compound 435840] | 0
53 | 435841 (antisense e[5mC]*eT*d[5mC]*dG*dG*dA*d[5mC]*dA*dA*dA*dA*dG*eA*eG) [compound 435841] | 1
54 | 435842 (antisense eA*eT*dT*dT*d[5mC]*d[5mC]*d[5mC]*dA*dT*dT*dG*dG*e[5mC]*eA) [compound 435842] | 0
55 | 435843 (antisense eG*e[5mC]*dT*dG*dG*dA*dG*d[5mC]*dT*dG*dA*dG*e[5mC]*e[5mC]) [compound 435843] | 0
56 | 435844 (antisense eT*eG*dG*d[5mC]*d[5mC]*dA*dG*dT*dG*dG*d[5mC]*d[5mC]*eT*e[5mC]) [compound 435844] | 30
